Publication PMC6271731, “Multitarget Molecular Hybrids of Cinnamic Acids” (Molecules, 2014)
pIC50: −log10 of the molar value. Like-named read-outs stand apart in the source and are kept apart here. Marks after values point to notes of the source that are not given here.

How the values were obtained:
[1] = test system: carrageenin-induced rat paw oedema; assay: Inhibition of the carrageenin-induced rat paw oedema; type: in vivo, Fisher-344 rats; conditions: 0.01 mmol/1 kg, i.p., 3.5 h after carrageenin
Description: (§1) Anti-inflammatory tests were conducted on Fisher-344 inbred rats of ca. 200 g body weight whereas antinociception and motor and sensory functions after sciatic nerve crash were performed on Wistar rats. Both sexes were used. Females pregnant were excluded. Each group was composed of 6 animals. The animals, which have been bred in our laboratory, were housed under standard conditions and received a diet of commercial food pellets and water ad libitum during the maintenance. Our studies were carried out in accordance with recognised guidelines on animal experimentation.
The tested compounds 0.01 mmol/kg body weight were suspended in water with few drops of Tween 80 and ground in a mortar before use. Controls received the liquid vehicle only. All the in vivo experiments were repeated at least in triplicate and were subjected to statistic analysis using the student’s t-test.
Oedema was induced in the right hind paw of Fisher 344 rats by the intradermal injection of 0.1 mL 2% carrageenin in water. Each group was composed of 6 animals which they were entirely fasted during the experiment period. The tested compounds 0.01 mmol/kg body weight, were given intraperitoneally simultaneously with the carrageenin injection. The rats were euthanized 3.5 h after carrageenin injection. The difference between the weight of the injected and not-injected paws was calculated for each animal. The change in paw weight was compared with that in control animals (treated with water) and expressed as a percent inhibition of the oedema (ICPE % values in Table 1). Indomethacin 0.01 mmol/kg was used as reference compound. ICPE % are the mean values from two different experiments with a standard error of the mean less than 10%.

[2] = Lipophilicity as RM values by RP-TLC; type: physicochemical; conditions: methanol/water 70/30, 24 °C, average of at least five measurements
Text: Since lipophilicity is a significant physicochemical property determining distribution, bioavailability, metabolic activity and elimination, we tried to determine experimentally the lipophilicity of the new substances by a RPTLC method as RM values (Table 1) and to compare them with the corresponding theoretically calculated clog p values in n-octanol-buffer. This is considered to be a reliable, fast and convenient method for expressing lipophilicity. Lipophilicity (Table 2), was theoretically calculated as Clog p values in n-octanol-buffer by the CLOGP Programme of Biobyte Corp..
Reversed phase TLC (RP-TLC) was performed on silica gel plates impregnated with 5% (v/v) liquid paraffin in light petroleum ether. The mobile phase was a methanol/water mixture (70/30, v/v). The plates were developed in closed chromatography tanks saturated with the mobile phase at 24 °C. Spots were detected under UV light. RM values were determined from the corresponding Rf values (from five individual measurements) using the equation RM = log [(1/Rf) − 1] (Table 1).

[3] = Inhibition of linoleic acid lipid peroxidation (AAPH); conditions: % inhibition at 100 μM; pH 7.4, 37 °C
Description: Production of conjugated diene hydroperoxide by oxidation of sodium linoleate in an aqueous dispersion is monitored at 234 nm. AAPH is used as a free radical initiator [12, 24]. Ten microlitres of the 16 mM sodium linoleate solution was added to the UV cuvette containing 930 μL of 0.05 M phosphate buffer, pH 7.4 prethermostated at 37 °C. The oxidation reaction was initiated at 37 °C under air by the addition of 40 mM AAPH solution (50 μL). Ten μL of the tested compounds were added in the mixture. Lipid oxidation was measured in the presence of the same level of DMSO. The rate of oxidation at 37 °C was monitored by recording the increase in absorption at 234 nm caused by conjugated diene hydroperoxides. The results were compared to the appropriate standard inhibitor trolox (63%) (Table 1).

soybean lipoxygenase = target: T1, soybean lipoxygenase (Glycine max, UniProt P08170); assay: Soybean lipoxygenase inhibition in vitro; type: biochemical; conditions: for IC50: sodium linoleate 0.1 mM, tris buffer pH 9, room temperature, read-out: IC50 μM LOX Inh.
T1 construct: purchased Sigma Chemical, Co. (St. Louis, MO, USA)
T1 sequence (P08170 1-839): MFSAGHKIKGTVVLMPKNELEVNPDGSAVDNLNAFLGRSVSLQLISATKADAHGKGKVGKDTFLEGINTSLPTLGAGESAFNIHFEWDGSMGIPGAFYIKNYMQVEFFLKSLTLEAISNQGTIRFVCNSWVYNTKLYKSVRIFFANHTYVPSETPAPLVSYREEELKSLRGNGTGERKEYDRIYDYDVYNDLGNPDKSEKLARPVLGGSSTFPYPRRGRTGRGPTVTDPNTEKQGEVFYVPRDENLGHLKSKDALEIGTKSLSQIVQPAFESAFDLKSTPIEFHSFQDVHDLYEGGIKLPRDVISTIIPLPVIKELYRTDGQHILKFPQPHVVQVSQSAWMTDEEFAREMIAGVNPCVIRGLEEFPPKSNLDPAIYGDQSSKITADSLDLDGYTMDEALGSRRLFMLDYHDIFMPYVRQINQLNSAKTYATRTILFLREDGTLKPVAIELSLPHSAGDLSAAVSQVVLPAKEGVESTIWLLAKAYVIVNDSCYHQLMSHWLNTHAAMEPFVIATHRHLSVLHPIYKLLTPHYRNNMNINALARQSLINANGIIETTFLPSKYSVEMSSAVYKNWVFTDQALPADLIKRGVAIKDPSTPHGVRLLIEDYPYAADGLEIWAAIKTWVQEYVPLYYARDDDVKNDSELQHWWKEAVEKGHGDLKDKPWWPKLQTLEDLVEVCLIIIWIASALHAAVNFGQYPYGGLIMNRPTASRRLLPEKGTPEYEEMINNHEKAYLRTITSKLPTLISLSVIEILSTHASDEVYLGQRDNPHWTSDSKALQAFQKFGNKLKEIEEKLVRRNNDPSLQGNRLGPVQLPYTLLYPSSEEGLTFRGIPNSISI
Description: DMSO solution of the tested compound was incubated with sodium linoleate (0.1 mM) and 0.2 mL of soybean lipoxygenase solution (1/9 × 10^−4 w/v in saline) in buffer pH 9 (tris) and at room temperature. […] The results are given in Table 1 expressed as IC50 values or % inhibition at 100 μM.

[4] = test system: acetic acid-induced writhing; assay: Antinociceptive screen (writhing test); type: in vivo, Wistar rats; conditions: Rattus norvegicus, ip, 0.5 h, i.p. 30 min before 0.6% acetic acid, writhes counted over 30 min, read-out: % ANA (in vivo analgesic-antinociceptive activity)
Description: as §1
[…] Controls received the liquid vehicle only. All the in vivo experiments were repeated at least in triplicate and were subjected to statistic analysis using the student’s t-test.
The writhing reflex was used. The test compounds were administered i.p. 30 min prior to the i.p. administration of 1 mL/100 g body weight of 0.6% acetic acid. […] After 5 min, the number of stretches characterized by repeated contractions of the abdominal musculature accompanied by extension of the hind limbs was counted every 5 min for the next 30 min. […] The % antinociceptive activity (a:a) was calculated as: % a:a = (n − n'/n) × 100 (a: a analgesic activity, n average number of writhes of control group, n' average number in the test group).

sciatic nerve crush = assay: Sciatic Functional Index after sciatic nerve crush; type: in vivo, Wistar rats
Text: SFI is the current standard for measuring functional recovery following rat sciatic nerve crush. Its calculation involves the measurement of wide-ranging relationships between feet and toes of the hindlimb of recovering animals. SFI values close to −100 indicate severe damage, while SFI values close to 0 indicate normal function. The treated rats improved their walk and the relationship between feet and toes of the crushed hindlimbs starting from day 14 to day 21.
One day prior to the surgery and the behavioral testing, Wistar rats were handled by the investigators and introduced to the testing environment for a brief period of time. Rats were anesthetized with chloral hydrate 4.5% (1 mL/100 g). […] After the exposure, the nerve was crushed once for 30 s at standardized force. The muscle was reapproximated and the skin incision was closed using 6 to 0 sutures. The examination of the loss of sensory and motor function in the operated limb established the crush completeness. Digits in the operated limb were pinched with a blunt forceps. Absence of foot withdrawal and vocalization was recorded as loss of sensory and motor function. Animals were placed under a heating lamp until they recovered from the anesthesia and they returned to their home cages.
The tested solutions were freshly prepared on surgery day (day 0).
[…] The day of the surgery is considered as day 0 [36, 37, 38].
In the present study, the plantar surfaces of the hindlimbs of the rats were impregnated with ink and then the animals were allowed to walk on a paper along a corridor, leaving footprints during walking.
A wooden corridor (1 m × 8 cm) with raised sidewalls was used. Two and a half white paper strips (40 × 7.5 cm) were placed along the corridor and were fixed with adhesive tape closely together and at the base and the sidewalls of the corridor. Each rat was trained to walk steadily along the corridor without stops until it made three at least successful efforts of continuous walking. The footprints were allowed to dry and were then converted into digital images using a computer and a high resolution scanner. The image processing was done by using the ImageJ. This is an open-source image analysis software created in 1997 by Rayne Rasband (National Institute of Health), widely used in medical applications, especially neuroscience, for measuring distances and surface and plotting the data. The footprints were analyzed as described by Bain et al. in measurements were included: • (i) print length (PL): distance from the heel to the third toe, • (ii) toe spread (TS) distance from the first to the fifth toe on both sides and • (iii) intermediate toe spread (ITS) the distance between the middle of the second and fourth toe
All measurements were taken both from the experimental (EPL, ETS, EIT) and the normal (NPL, NTS, NIT) side. The formula used to calculate SFI was the following: SFI = −38.3 (EPL − NPL)/NPL + 109.5 (ETS − NTS)/NTS + 13.3 (EIT − NIT)/NIT − 8.8

[5] = target: T2, pancreatic bovine trypsin (Bos taurus, UniProt P00760); assay: Inhibition of trypsin induced proteolysis in vitro; type: biochemical; conditions: bovine albumin substrate, pH 7.6, 37 °C; read-out: IC50 μM Trypsin Inh.
T2 construct: purchased Sigma Chemical, Co. (St. Louis, MO, USA)
T2 sequence (P00760 24-246): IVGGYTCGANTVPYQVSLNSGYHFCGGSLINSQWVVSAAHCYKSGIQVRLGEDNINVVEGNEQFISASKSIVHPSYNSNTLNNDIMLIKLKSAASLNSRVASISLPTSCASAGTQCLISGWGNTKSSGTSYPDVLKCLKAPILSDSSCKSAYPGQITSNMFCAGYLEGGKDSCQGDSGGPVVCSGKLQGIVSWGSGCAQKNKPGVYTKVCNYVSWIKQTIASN
Text: All chemicals, solvents, chemical and biochemical reagents were of analytical grade and purchased from commercial sources (Merck, Merck KGaA, Darmstadt, Germany, Fluka Sigma-Aldrich Laborchemikalien GmbH, Hannover, Germany, Alfa Aesar, Karlsruhe, Germany and Sigma, St. Louis, MO, USA). Soybean lipoxygenase, pancreatic bovine trypsin, sodium linoleate, free radical DPPH and 2,2-azinobis-2-methyl-propanimidamine HCl (AAPH) were obtained from Sigma Chemical, Co. (St. Louis, MO, USA), carrageenin, type K, was commercially available. All starting materials were obtained from commercial sources and used without further purification.
The test was carried out according to a modified Kunitz method. Bovine albumin was used as substrate for trypsin. The reaction mixture consisted of 0.075 mg/mL trypsin (200 μL) and 780 μL of phosphate buffer pH 7.6 (including the tested compounds (20 μL in DMSO, final concentration 100 μM) preincubated at 37 °C for 20 min and then 1 mL of albumin (stock solution 6 g/100 mL in phosphate buffer 0.1 M, pH 7.6) was added and incubated at 37 °C for 30 min. After the incubation 1 mL of 5% trichloroacetic acid was added to the incubated solution to stop the enzyme’s reaction and allowed to set at room temperature for 1 h. Then the solution was filtered by filter paper and the absorption of the filtered solution was measured at 280 nm. Salicylic acid was used as a reference compound (Table 1).

esterase = assay: In vitro esterase activity on hybrids; type: in vitro ADME; conditions: 1 mM, phosphate buffer pH 7.8, 37 °C, 90 min and 24 h
Description: Representative hybrid molecules are subjected to an esterase activity in vitro. 100 μL of 1 mg/mL 0.001 N hydrochloric acid of esterase solution was added to 1,250 μL of phosphate buffer (0.1 M) pH 7.8 including the tested compounds (150 μL in DMSO, final concentration 1 mM) and incubated at 37 °C for 90 min. The incubated solution was allowed to set at room temperature. Then, the absorption was measured at 256 nm. The measurement was repeated after 24 h of incubation at 37 °C.

[6] = single i.p. dose 0.01 mmol/mL/kg, 8 h after surgery

| SMILES | % ICPE (carrageenin-induced rat paw oedema inhibition) [1] | RM (±S.D.) [2] | AAPH % (% inhibition of lipid peroxidation) [3] | IC50 (soybean lipoxygenase) | inhibition in vivo at 0.01 mmol/0.1 kg [4] | pIC50 (soybean lipoxygenase) | other results |
| --- | --- | --- | --- | --- | --- | --- | --- |
| COc1ccc2c(c1)c(CC(=O)O)c(C)n2C(=O)c1ccc(Cl)cc1 [Indomethacin, reference compound] | 47 * % |  |  |  |  |  | % ICPE (carrageenin-induced rat paw oedema inhibition) ([1]; listed as indomethacin): 47% |
| O=C(O)/C=C/c1cccs1 [IV] | 42.7 * % | −0.56 ± 0.019 | 60% | 98 µM |  |  |  |
| O=c1cc(O)c2ccccc2o1 [Compound 4-HC, 4-hydroxycoumarin, reference compound] | 62 * % |  | 100% |  |  |  |  |
| CC(=O)Nc1ccc(O)cc1 [Paracetamol, 4-acetamidophenol, reference compound] | 21 * % |  | 91% | 82 µM | 66% |  | % ICPE (carrageenin-induced rat paw oedema inhibition) ([1]; listed as paracetamol): 21%; SFI, Day before Crash (sciatic nerve crush; baseline before surgery and dosing): −12; SFI, Day-1 (sciatic nerve crush; [6]): −93.3; SFI, Day-7 (sciatic nerve crush; [6]): −93.3; SFI, Day-14 (sciatic nerve crush; [6]): −36; SFI, Day-21 (sciatic nerve crush; [6]): −18.5 |
| O=C(O)/C=C/c1ccc(OCc2ccc(Br)cc2)cc1 [II] | 41.6 * % | −0.41 ± 0.026 | 84% |  | 67% | 4.18 | % ICPE (carrageenin-induced rat paw oedema inhibition) ([1]; listed as acid II): 44% |
| O=C(/C=C/c1cccc(Oc2ccccc2)c1)Oc1cc(=O)oc2ccccc12 [Compound 2b, (E)-2-Oxo-2H-chromen-4-yl 3-(3-phenoxyphenyl)acrylate] |  | −0.661± 0.008 | 100% |  |  | 4.00 | IC50 [5]: 100 µM; hydrolysis of the ester group by esterase (esterase): hydrolyzed |
